In ChEMBL document CHEMBL4177740, “Selective inhibition of β-N-acetylhexosaminidases by thioglycosyl-naphthalimide hybrid molecules” (Bioorg Med Chem, 2018):

Key:
[1] = biological target: T1, Protein O-GlcNAcase (Homo sapiens) (UniProt O60502); test: Inhibition of recombinant human OGA expressed in Escherichia coli BL21(DE3) at 100 uM using 4-MU-GlcNAc as substrate measured after 30 mins by fluorescence assay relative to control
T1 sequence (whole entry): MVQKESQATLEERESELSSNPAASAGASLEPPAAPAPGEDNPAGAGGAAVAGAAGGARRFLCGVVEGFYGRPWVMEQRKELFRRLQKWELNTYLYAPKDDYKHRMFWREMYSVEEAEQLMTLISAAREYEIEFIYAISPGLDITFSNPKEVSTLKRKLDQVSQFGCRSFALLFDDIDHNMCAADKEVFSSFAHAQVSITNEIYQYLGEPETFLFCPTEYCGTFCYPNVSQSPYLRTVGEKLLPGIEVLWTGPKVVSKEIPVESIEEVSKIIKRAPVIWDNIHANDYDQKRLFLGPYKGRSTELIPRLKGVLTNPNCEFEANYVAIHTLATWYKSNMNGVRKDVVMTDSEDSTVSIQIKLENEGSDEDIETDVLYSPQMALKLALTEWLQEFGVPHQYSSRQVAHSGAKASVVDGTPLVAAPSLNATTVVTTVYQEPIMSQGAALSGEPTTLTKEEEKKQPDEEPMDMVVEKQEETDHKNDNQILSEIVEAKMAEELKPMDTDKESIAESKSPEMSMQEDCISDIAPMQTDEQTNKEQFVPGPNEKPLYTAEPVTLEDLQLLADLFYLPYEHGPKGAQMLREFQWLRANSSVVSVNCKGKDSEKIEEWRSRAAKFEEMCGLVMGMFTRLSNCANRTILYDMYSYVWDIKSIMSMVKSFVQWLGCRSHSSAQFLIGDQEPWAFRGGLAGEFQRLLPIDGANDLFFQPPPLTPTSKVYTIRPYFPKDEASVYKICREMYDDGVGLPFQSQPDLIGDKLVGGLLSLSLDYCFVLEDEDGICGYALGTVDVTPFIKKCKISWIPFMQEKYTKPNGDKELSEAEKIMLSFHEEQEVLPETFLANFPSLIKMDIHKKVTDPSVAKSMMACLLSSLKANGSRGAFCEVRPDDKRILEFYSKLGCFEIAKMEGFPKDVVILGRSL

[2] = biological target: T2, Chitooligosaccharidolytic beta-N-acetylglucosaminidase (Ostrinia furnacalis) (UniProt Q06GJ0); test: Inhibition of Ostrinia furnacalis Hex1 expressed in Pichia pastoris at 100 uM using 4-MU-GlcNAc as substrate measured after 30 mins by fluorescence assay relative to control
T2 sequence (whole entry): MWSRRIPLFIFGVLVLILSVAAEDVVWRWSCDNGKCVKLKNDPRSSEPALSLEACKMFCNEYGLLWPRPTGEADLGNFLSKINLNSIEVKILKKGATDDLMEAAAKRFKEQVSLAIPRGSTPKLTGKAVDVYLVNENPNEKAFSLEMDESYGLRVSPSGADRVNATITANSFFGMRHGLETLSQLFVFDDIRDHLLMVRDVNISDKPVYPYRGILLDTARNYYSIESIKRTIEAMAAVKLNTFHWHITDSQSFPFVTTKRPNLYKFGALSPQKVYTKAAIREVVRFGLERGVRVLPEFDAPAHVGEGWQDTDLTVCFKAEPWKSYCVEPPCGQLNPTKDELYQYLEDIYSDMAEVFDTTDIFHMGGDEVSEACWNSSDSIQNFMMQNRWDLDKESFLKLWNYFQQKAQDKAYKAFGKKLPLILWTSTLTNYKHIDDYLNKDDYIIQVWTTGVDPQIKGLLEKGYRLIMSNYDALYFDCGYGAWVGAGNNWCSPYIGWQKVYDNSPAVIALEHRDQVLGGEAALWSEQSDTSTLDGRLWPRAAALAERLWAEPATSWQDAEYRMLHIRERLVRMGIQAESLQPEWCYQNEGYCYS

[3] = biological target: T3, Chitooligosaccharidolytic beta-N-acetylglucosaminidase (Ostrinia furnacalis, UniProt Q06GJ0); test: Inhibition of Ostrinia furnacalis Hex1 expressed in Pichia pastoris using varying levels of 4-MU-GlcNAc as substrate measured after 30 mins by fluorescence assay
T3 sequence (Q06GJ0 whole entry): T2 sequence (whole entry)

[4] = biological target: T2, Chitooligosaccharidolytic beta-N-acetylglucosaminidase (Ostrinia furnacalis); test: Inhibition of Ostrinia furnacalis Hex1 expressed in Pichia pastoris at 200 uM using varying levels of 4-MU-GlcNAc as substrate measured after 30 mins by fluorescence assay relative to control
[5] = biological target: T1, Protein O-GlcNAcase (Homo sapiens); test: Inhibition of recombinant human OGA expressed in Escherichia coli BL21(DE3) at 200 uM using 4-MU-GlcNAc as substrate measured after 30 mins by fluorescence assay relative to control
[6] = biological target: T4, Protein O-GlcNAcase (Homo sapiens, UniProt O60502); test: Inhibition of recombinant human OGA expressed in Escherichia coli BL21(DE3) using varying levels of 4-MU-GlcNAc as substrate measured after 30 mins by fluorescence assay
T4 sequence (O60502 whole entry): T1 sequence (whole entry)

SMILES	inhibition [1] [%]	inhibition [2] [%]	Ki [3] [µM]	inhibition [4] [%]	inhibition [5] [%]	Ki [6] [µM]
CC(=O)N[C@@H]1[C@@H](O)[C@H](O)[C@@H](CO)O[C@H]1SCCC(=O)NCCCN1C(=O)c2cccc3cccc(c23)C1=O	59.4	25.3	–	–	–	–
CC(=O)N[C@@H]1[C@@H](O)[C@H](O)[C@@H](CO)O[C@H]1SCCC(=O)NCCCCN1C(=O)c2cccc3cccc(c23)C1=O	34.3	26.9	–	–	–	–
CC(=O)N[C@@H]1[C@@H](O)[C@H](O)[C@@H](CO)O[C@H]1SCCn1cc(CN2C(=O)c3cccc4cccc(c34)C2=O)nn1	27.8	84	–	–	–	–
CC(=O)N[C@@H]1[C@@H](O)[C@H](O)[C@@H](CO)O[C@H]1SCCCCCn1cc(CN2C(=O)c3cccc4cccc(c34)C2=O)nn1	26	91.9	–	–	–	–
CC(=O)N[C@@H]1[C@@H](O)[C@H](O)[C@@H](CO)O[C@H]1SCC(=O)NCCN1C(=O)c2cccc3cccc(c23)C1=O	38.6	18.4	–	–	–	–
CC(=O)N[C@H]1/C(=N/OC(=O)Nc2ccccc2)O[C@H](CO)[C@@H](O)[C@@H]1O	98.9	97.5	–	–	–	–
CC(=O)N[C@@H]1[C@@H](O)[C@H](O)[C@@H](CO)O[C@H]1SCC(=O)NCCCN1C(=O)c2cccc3cccc(c23)C1=O	97.6	29.2	> 200	< 50	–	–
CC(=O)N[C@@H]1[C@@H](O)[C@H](O)[C@@H](CO)O[C@H]1SCCCCCCn1cc(CN2C(=O)c3cccc4cccc(c34)C2=O)nn1	25.7	93.2	21.8	–	< 50	> 200
CC(=O)N[C@@H]1[C@@H](O)[C@H](O)[C@@H](CO)O[C@H]1S	12	0	–	–	–	–
CC(=O)N[C@@H]1[C@@H](O)[C@H](O)[C@@H](CO)O[C@H]1SCC(=O)NN1C(=O)c2cccc3cccc(c23)C1=O	31.1	24.9	–	–	–	–
CC(=O)N[C@@H]1[C@@H](O)[C@H](O)[C@@H](CO)O[C@H]1SCCCCn1cc(CN2C(=O)c3cccc4cccc(c34)C2=O)nn1	25.1	89.9	–	–	–	–
CC(=O)N[C@@H]1[C@@H](O)[C@H](O)[C@@H](CO)O[C@H]1SCCC(=O)NCCN1C(=O)c2cccc3cccc(c23)C1=O	66.9	25.8	–	–	–	–
CC(=O)N[C@@H]1[C@@H](O)[C@H](O)[C@@H](CO)O[C@H]1SCn1cc(CN2C(=O)c3cccc4cccc(c34)C2=O)nn1	18.5	17.9	–	–	–	–
CC(=O)N[C@@H]1[C@@H](O)[C@H](O)[C@@H](CO)O[C@H]1SCC(=O)NCCCCN1C(=O)c2cccc3cccc(c23)C1=O	50	29.1	–	–	–	–
CC(=O)N[C@@H]1[C@@H](O)[C@H](O)[C@@H](CO)O[C@H]1SCCCn1cc(CN2C(=O)c3cccc4cccc(c34)C2=O)nn1	22.7	81.6	–	–	–	–
NN1C(=O)c2cccc3cccc(c23)C1=O	22.2	28.1	–	–	–	–
